Source: ChEMBL document CHEMBL3885861, “Open TG-GATES”

Organism: Rattus norvegicus
Assay: Open TG-GATES - Regimen: Single
Assay type: toxicity, organism-based, Sprague-Dawley
Parameters: regimen Single, gender Male, age 6 weeks
Conditions: in vivo, po, 1000 mg/kg, route gavage, dose level High; for APTT / Bas / Eos / Fbg / Hb / Ht / Lym / MCH / MCHC / MCV / Mono / Neu / PT / Plat / RBC / Ret / WBC: tissue Blood; for KIDNEY_L / KIDNEY_R / KIDNEY_TOTAL: tissue Kidney; for LIVER: tissue Liver; for A/G / ALP / ALT / AST / BUN / CRE / Ca / Cl / DBIL / GLC / IP / K / LDH / Na / PL / RALB / TBIL / TC / TG / TP / gamma-GTP: tissue Plasma

Question: What does the source list for `CCc1cc(C(N)=S)ccn1` [ETHIONAMIDE]?
Answer: TERMINAL_BW (3 h): 227.9 g; APTT (3 h): 17.7 s; Bas (3 h): 0%; Eos (3 h): 1%; Fbg (3 h): 212.6 mg/dL; Hb (3 h): 13.7 g/dL; Ht (3 h): 40.6%; Lym (3 h): 70.8%; MCH (3 h): 21.4 pg; MCHC (3 h): 33.8%; MCV (3 h): 63.5 fL; Mono (3 h): 8.4%; Neu (3 h): 19.8%; PT (3 h): 12.4 s; Plat (3 h): 112.8 x10_4/uL; RBC (3 h): 640 x10_4/ul; Ret (3 h): 7.9%; WBC (3 h): 62.9 x10_2/uL; KIDNEY_L (3 h): 1 g; KIDNEY_R (3 h): 1 g; KIDNEY_TOTAL (3 h): 2 g; LIVER (3 h): 11.1 g; A/G (3 h): 1.9; ALP (3 h): 715 IU/L; ALT (3 h): 33.6 IU/L; AST (3 h): 69 IU/L; BUN (3 h): 13.4 mg/dL; CRE (3 h): 0.5 mg/dL; Ca (3 h): 11 mg/dL; Cl (3 h): 100 meq/L; DBIL (3 h): 0.014 mg/dL; GLC (3 h): 202.8 mg/dL; IP (3 h): 9.1 mg/dL; K (3 h): 4 meq/L; LDH (3 h): 106.4 IU/L; Na (3 h): 139.2 meq/L; PL (3 h): 130.4 mg/dL; RALB (3 h): 3.7 g/dL; TBIL (3 h): 0.4 mg/dL; TC (3 h): 78.6 mg/dL; TG (3 h): 46 mg/dL; TP (3 h): 5.7 g/dL; gamma-GTP (3 h): 1.2 IU/L; TERMINAL_BW (6 h): 227.1 g; APTT (6 h): 18.3 s; Bas (6 h): 0%; Eos (6 h): 0.8%; Fbg (6 h): 209.2 mg/dL; Hb (6 h): 14.4 g/dL; Ht (6 h): 43.1%; Lym (6 h): 75.6%; MCH (6 h): 21.9 pg; MCHC (6 h): 33.5%; MCV (6 h): 65.3 fL; Mono (6 h): 7.6%; Neu (6 h): 16%; PT (6 h): 13.8 s; Plat (6 h): 118.7 x10_4/uL; RBC (6 h): 659.2 x10_4/ul; Ret (6 h): 7.9%; WBC (6 h): 98.1 x10_2/uL; KIDNEY_L (6 h): 1 g; KIDNEY_R (6 h): 1 g; KIDNEY_TOTAL (6 h): 2 g; LIVER (6 h): 10.4 g; A/G (6 h): 1.8; ALP (6 h): 679 IU/L; ALT (6 h): 33.8 IU/L; AST (6 h): 74.8 IU/L; BUN (6 h): 16 mg/dL; CRE (6 h): 0.5 mg/dL; Ca (6 h): 10.9 mg/dL; Cl (6 h): 102.8 meq/L; DBIL (6 h): 0.004 mg/dL; GLC (6 h): 192.4 mg/dL; IP (6 h): 9.4 mg/dL; K (6 h): 4 meq/L; LDH (6 h): 119.2 IU/L; Na (6 h): 139.2 meq/L; PL (6 h): 111.8 mg/dL; RALB (6 h): 3.6 g/dL; TBIL (6 h): 0.5 mg/dL; TC (6 h): 62.4 mg/dL; TG (6 h): 17.8 mg/dL; TP (6 h): 5.6 g/dL; gamma-GTP (6 h): 1.2 IU/L; TERMINAL_BW (9 h): 224.3 g; APTT (9 h): 18.3 s; Bas (9 h): 0%; Eos (9 h): 1.2%; Fbg (9 h): 209 mg/dL; Hb (9 h): 14 g/dL; Ht (9 h): 41.3%; Lym (9 h): 73.8%; MCH (9 h): 21.2 pg; MCHC (9 h): 33.8%; MCV (9 h): 62.8 fL; Mono (9 h): 8.4%; Neu (9 h): 16.8%; PT (9 h): 14.6 s; Plat (9 h): 121.3 x10_4/uL; RBC (9 h): 657 x10_4/ul; Ret (9 h): 7.5%; WBC (9 h): 77.3 x10_2/uL; KIDNEY_L (9 h): 1 g; KIDNEY_R (9 h): 1 g; KIDNEY_TOTAL (9 h): 2 g; LIVER (9 h): 9.7 g; A/G (9 h): 1.9; ALP (9 h): 641 IU/L; ALT (9 h): 36.2 IU/L; AST (9 h): 75.2 IU/L; BUN (9 h): 16.4 mg/dL; CRE (9 h): 0.5 mg/dL; Ca (9 h): 10.6 mg/dL; Cl (9 h): 104.6 meq/L; DBIL (9 h): 0.018 mg/dL; GLC (9 h): 202 mg/dL; IP (9 h): 9.6 mg/dL; K (9 h): 4.3 meq/L; LDH (9 h): 99 IU/L; Na (9 h): 140.6 meq/L; PL (9 h): 107.8 mg/dL; RALB (9 h): 3.5 g/dL; TBIL (9 h): 0.4 mg/dL; TC (9 h): 59.4 mg/dL; TG (9 h): 14.8 mg/dL; TP (9 h): 5.3 g/dL; gamma-GTP (9 h): 1.2 IU/L; TERMINAL_BW (24 h): 219.4 g; APTT (24 h): 18.9 s; Bas (24 h): 0%; Eos (24 h): 1.6%; Fbg (24 h): 186.4 mg/dL; Hb (24 h): 15.3 g/dL; Ht (24 h): 45.1%; Lym (24 h): 62.2%; MCH (24 h): 22.2 pg; MCHC (24 h): 34%; MCV (24 h): 65.3 fL; Mono (24 h): 7.8%; Neu (24 h): 28.2%; PT (24 h): 15.4 s; Plat (24 h): 118 x10_4/uL; RBC (24 h): 691.2 x10_4/ul; Ret (24 h): 8.3%; WBC (24 h): 63.3 x10_2/uL; KIDNEY_L (24 h): 1 g; KIDNEY_R (24 h): 1 g; KIDNEY_TOTAL (24 h): 2 g; LIVER (24 h): 10.1 g; A/G (24 h): 2; ALP (24 h): 839.2 IU/L; ALT (24 h): 36.6 IU/L; AST (24 h): 68.6 IU/L; BUN (24 h): 13 mg/dL; CRE (24 h): 0.6 mg/dL; Ca (24 h): 10.3 mg/dL; Cl (24 h): 102.2 meq/L; DBIL (24 h): 0.054 mg/dL; GLC (24 h): 228.8 mg/dL; IP (24 h): 8.3 mg/dL; K (24 h): 3.9 meq/L; LDH (24 h): 87.6 IU/L; Na (24 h): 140.8 meq/L; PL (24 h): 86.6 mg/dL; RALB (24 h): 3.6 g/dL; TBIL (24 h): 0.4 mg/dL; TC (24 h): 41.4 mg/dL; TG (24 h): 41.8 mg/dL; TP (24 h): 5.3 g/dL; gamma-GTP (24 h): 0.4 IU/L
